The term IC50 denotes the point on the concentration scale where inhibition reaches its midpoint.

Activity calls are given as the source filed them. How the calls were made is not given here.

In PubChem BioAssay AID489033 (Sanford-Burnham Center for Chemical Genomics, 2010) one finds IC50 data, which are given here for 35 molecules.

The subject of the experiment is 697B B-cell line, NF-kB luciferase reporter luminescence. Kind of experiment: inhibitors of B-cell NF-kB luciferase signal – 697B cells, luminescence, selectivity assay for T-cell antigen receptor NF-kB inhibitors, dose response (AID 489033).

`Clc1ccc2c(c1)C(C1=NCCN1)c1ccccc1CS2` (stereo not given): the IC50 was > 80 µM (inactive).

In the case of `COc1ccc(Br)cc1/C(C)=N/NC1=NCCN1`, the IC50 is > 80 µM (inactive).

In the case of `COC(=O)CCC(=O)NC(=S)Nc1sc(C)c(C)c1C(N)=O`, the IC50 was > 80 µM (inactive).

Regarding `O=C(Nc1ccc(S(=O)(=O)N2CCN(Cc3ccccc3)CC2)cc1)c1cnccn1`, the IC50 is > 80 µM (inactive).

For the molecule `C[C@]12CC[C@H](O)C[C@H]1CC[C@@H]1[C@@H]2CC[C@]2(C)[C@@H](C3=CC(=O)OC3)CC[C@]12O`, the IC50 is 0.67 µM.

Consider `COc1ccc(NC(=O)/C(Cl)=C(/Cl)S(=O)Cc2ccccc2)cn1` (stereo not given), for which the IC50 is 0.6 µM.

Consider `COc1ccc(OC)c(-c2nnc3n2N=C(c2ccc(OC)c(OC)c2)CS3)c1`, for which the IC50 was 55.2 µM (inactive).

Regarding `CCCCCCCCn1c2c(c(=N)c3ccccc31)CCC2`, the IC50 is 2.31 µM.

For the molecule `Cc1ccc(C(=O)Nc2cccc(C(=O)O)c2)cc1`, the IC50 was 1.7 µM.

Regarding `CCC(=O)NC(c1ccc(C)cc1)c1ccc2cccnc2c1O` (stereo not given), the IC50 is > 80 µM (inactive).

Turning to `COc1ccc(-n2nnnc2-c2cccc(OC)c2)cc1`, the IC50 is > 80 µM (inactive).

Turning to `Cc1cccc(N2CCN(C(=O)c3ccc(CS(=O)(=O)c4ccccc4C)o3)CC2C)c1` (stereo not given), the IC50 is 22.3 µM (inactive).

Take `Cc1cccc(N(C)S(=O)(=O)c2ccc(-c3cnc(C4CC4)o3)cc2)c1`: the IC50 was > 80 µM (inactive).

Consider `O=C(c1ccccc1)c1nn(-c2ccc(Cl)cc2)c(=O)cc1C(F)(F)F`, for which the concentration for half-maximal inhibition (IC50) is 6.53 µM.

As for `COc1cccc(OC)c1C1=NCC(=O)Nc2c1oc1ccc(Br)cc21`, the IC50 was 56.8 µM (inactive).

Turning to `Cc1ccc(COC(=O)c2cc([N+](=O)[O-])ccc2N2CCOCC2)cc1`, the IC50 is > 80 µM (inactive).

As to `Oc1ccc2ccccc2c1N=Nc1ccccn1`, the IC50 is 3.22 µM.

Consider `Cc1oc(-c2ccc(Cl)cc2)nc1CS(=O)CC(=O)NCCCN1CCN(Cc2ccccc2)CC1` (stereo not given), for which the IC50 was 60.8 µM (inactive).

Turning to `C/C=C/COC(=O)c1[nH]c2c(c1C)C(=O)CC(c1ccco1)C2` (stereo not given), the IC50 is > 80 µM (inactive).

`COc1ccc(NC(=O)Cn2nnc(-c3ccccc3NS(=O)(=O)c3ccc(OC)cc3)n2)cc1`: the IC50 is > 80 µM (inactive).

For the molecule `Cc1cccc(N2CCN(C(=O)c3c(-c4ccccc4Cl)noc3C)CC2)c1C`, the IC50 was > 80 µM (inactive).

Turning to `CCCCCCCn1c2c(c(=N)c3ccccc31)CCC2`, the IC50 is 3.7 µM.

Regarding `COc1ccc(CS(=O)(=O)/C(Cl)=C(/Cl)C(=O)Nc2ccc(OC)nc2)cc1`, the IC50 is 3.32 µM.

As to `CCCCCOC(=O)c1[nH]c2c(c1C)C(=O)CC(c1ccco1)C2` (stereo not given), the IC50 was > 80 µM (inactive).

As for `Cc1ncoc1C(=O)NC1CCCc2c1cnn2-c1ccc(C(C)(C)C)cc1` (stereo not given), the IC50 was 69.7 µM (inactive).

With `Cc1cc(C(=O)N2CC=C(c3ccccc3)CC2)c2ccccc2n1`, the IC50 is > 80 µM (inactive).

On to `COC(=O)c1[nH]c2c(c1C)C(=O)CC(c1cccs1)C2` (stereo not given), for which the IC50 is > 80 µM (inactive).

Regarding `Cn1c2c(c(=O)n(C)c1=O)C(C(F)(F)F)(C(F)(F)F)N=C(c1ccc(Cl)cc1)N2`, the IC50 was 1.93 µM.

`COc1cc(/C=C/[N+](=O)[O-])ccc1OCc1cccc(C(=O)O)c1`: the IC50 is 12 µM.

For the molecule `COc1cc([C@@H]2c3cc4c(cc3[C@@H](OC)[C@H]3COC(=O)[C@H]23)OCO4)cc(OC)c1O`, the IC50 was > 80 µM (inactive).

Take `COc1ccc(NC(=O)C(=O)NCC2CCCN2S(=O)(=O)c2cccs2)cc1` (stereo not given): the IC50 was > 80 µM (inactive).

Consider `COc1ccc(Nc2cc(C)nc(-n3nc(C)cc3C)n2)cc1`, for which the IC50 is > 80 µM (inactive).

On to `COc1ccc([C@H]2CC(=O)C=C(c3c(OC)cccc3OC)C2)cc1`, for which the IC50 is > 80 µM (inactive).

Take `O=C(COc1ccc2c(-c3ccccc3)cc(=O)oc2c1)Nc1cccnc1`: the IC50 was > 80 µM (inactive).

On to `COc1ccccc1CNS(=O)(=O)c1ccc(-c2cc(C)no2)cc1`, for which the IC50 is > 80 µM (inactive).
